Data from patent EP0799174B1, “BIOCIDAL ALCOHOLS, THEIR PRODUCTION AND THEIR USE” (SCHÜLKE & MAYR GMBH, priority 1994, dated 1996).

Assays:
Assay type in all cases: cell-based
[1] = test system: Escherichia coli ATCC 11229; test: Plate diffusion test (agar diffusion test); conditions: aromatic alcohol 1 part, dimethylformamide 6 parts
Text: (§1) Standard formulation: • aromatic alcohol 1 part • dimethylformamide 6 parts [table] The diameters of the inhibition zones are given in mm.

[2] = test system: Staphylococcus aureus ATCC 6538; test: Plate diffusion test (agar diffusion test); conditions: aromatic alcohol 1 part, dimethylformamide 6 parts
Text: as §1

[3] = test system: Candida albicans ATCC 10231; test: Plate diffusion test (agar diffusion test); conditions: aromatic alcohol 1 part, dimethylformamide 6 parts
Text: as §1

[4] = test system: Pseudomonas aeruginosa ATCC 15442; test: Plate diffusion test (agar diffusion test); conditions: aromatic alcohol 1 part, dimethylformamide 6 parts
Text: as §1

[5] = test system: Escherichia coli ATCC 11229; test: MIC values, water-insoluble (covered area of plates, solutions in acetone); conditions: solution in acetone, 100% means no inhibiting action
Text: (§2) [table] The size of the covered areas of the plates is given in %; 100% means no inhibiting action.

[6] = test system: Staphylococcus aureus ATCC 6538; test: as above; conditions: solution in acetone, 100% means no inhibiting action
Text: as §2

[7] = test system: Candida albicans ATCC 10231; test: as above; conditions: solution in acetone, 100% means no inhibiting action
Text: as §2

[8] = test system: Aspergillus niger ATCC 6275; test: as above; conditions: solution in acetone, 100% means no inhibiting action
Text: as §2

P. vulgaris = test system: P. vulgaris
Text: as §1

Row | SMILES | diameters of the inhibition zones, E. coli [1] [mm] | diameters of the inhibition zones, S. aureus [2] [mm] | diameters of the inhibition zones, C. albicans [3] [mm] | diameters of the inhibition zones, P. aeruginosa [4] [mm] | size of the covered areas of the plates, E. coli ([5]; concentration 0.25 % by wt.) [%] | size of the covered areas of the plates, E. coli ([5]; concentration 0.50 % by wt.) [%] | size of the covered areas of the plates, E. coli ([5]; concentration 1.00 % by wt.) [%] | size of the covered areas of the plates, S. aureus ([6]; concentration 0.25 % by wt.) [%] | size of the covered areas of the plates, S. aureus ([6]; concentration 0.50 % by wt.) [%] | size of the covered areas of the plates, S. aureus ([6]; concentration 1.00 % by wt.) [%] | size of the covered areas of the plates, C. albicans ([7]; concentration 0.25 % by wt.) [%] | size of the covered areas of the plates, C. albicans ([7]; concentration 0.50 % by wt.) [%] | size of the covered areas of the plates, C. albicans ([7]; concentration 1.00 % by wt.) [%] | size of the covered areas of the plates, A. niger ([8]; concentration 0.25 % by wt.) [%] | size of the covered areas of the plates, A. niger ([8]; concentration 0.50 % by wt.) [%] | size of the covered areas of the plates, A. niger ([8]; concentration 1.00 % by wt.) [%] | diameters of the inhibition zones, P. vulgaris (P. vulgaris) [mm] | also measured
1 | CCCCCC(CO)Cc1ccccc1 (centres unmarked) [Alcohol 18] | 0 | 11 | 11 | 0 | 100 | 100 | 100 | 100 | 20 | 0 | 100 | 80 | 70 | 100 | 40 | 0 | 0 | –
2 | CCC(CO)Cc1ccc(C)c(C)c1 (centres unmarked) [Alcohol 14] | 15 | 18 | 22 | 18 | 100 | 100 | 100 | 100 | 90 | 30 | 100 | 100 | 20 | 90 | 80 | 10 | 0 | size of the covered areas of the plates, E. coli ([5]; concentration 0.125 % by wt.): 100%; size of the covered areas of the plates, S. aureus ([6]; concentration 0.125 % by wt.): 100%; size of the covered areas of the plates, C. albicans ([7]; concentration 0.125 % by wt.): 100%; size of the covered areas of the plates, A. niger ([8]; concentration 0.125 % by wt.): 100%
3 | CCC(CO)Cc1ccc(OC)c(OC)c1 (centres unmarked) [Alcohol 16] | 17 | 18 | 28 | 18 | – | – | – | – | – | – | – | – | – | – | – | – | 17 | –
4 | C=CCC(CO)Cc1ccccc1 (centres unmarked) [Alcohol 17] | 13 | 16 | 17 | 12 | – | 100 | 90 | – | 100 | 100 | – | 100 | 100 | – | 100 | 80 | 13 | –
5 | CCC(CO)Cc1ccccc1C (centres unmarked) [Alcohol 12] | 17 | 20 | 22 | 15 | – | 100 | 100 | – | 100 | 90 | – | 100 | 80 | – | 100 | 80 | 13 | –
6 | CCC(CO)Cc1ccc(Cl)c(Cl)c1 (centres unmarked) [Alcohol 11] | 0 | 17 | 13 | 0 | 100 | 100 | 90 | 100 | 90 | 5 | 100 | 80 | 10 | 100 | 70 | 10 | 0 | –
7 | CCC(CO)Cc1cccc(OC)c1 (centres unmarked) [Alcohol 15] | 18 | 18 | 23 | 15 | – | 100 | 100 | – | 100 | 100 | – | 100 | 100 | – | 100 | 90 | 18 | –
8 | CCC(CO)Cc1ccc(C)cc1 (centres unmarked) [Alcohol 13] | 13 | 16 | 19 | 13 | 100 | 100 | 95 | 100 | 100 | 90 | 100 | 100 | 90 | 100 | 90 | 20 | 14 | –
9 | CCC(CO)Cc1ccc(Cl)cc1 (centres unmarked) [Alcohol 10] | 11 | 14 | 15 | 0 | 100 | 100 | 100 | 100 | 100 | 10 | 100 | 90 | 10 | 90 | 70 | 10 | 0 | size of the covered areas of the plates, E. coli ([5]; concentration 0.125 % by wt.): 100%; size of the covered areas of the plates, S. aureus ([6]; concentration 0.125 % by wt.): 100%; size of the covered areas of the plates, C. albicans ([7]; concentration 0.125 % by wt.): 100%; size of the covered areas of the plates, A. niger ([8]; concentration 0.125 % by wt.): 100%
